In patent US20250154138A1, “Small Molecule IL-17A Modulators” (BeiGene, Ltd., priority 2022, published 2025):
pIC50: −log10 of the molar value.

Target: human IL-17A / human IL-17RA (Homo sapiens (Human), UniProt Q16552)
Test: Human IL-17A biochemical assay (HTRF, blocking of IL-17A binding to IL-17RA)
Conditions: 0.4 nM IL-17A, 0.3 nM IL-17RA, max compound concentration 10 uM
Protocol: Compounds disclosed herein were tested for blocking of human IL-17A (Cat: C774, novoprotein) protein with its receptor human IL-17RA (Cat: C153, novoprotein) in an assay based on Homogeneous Time Resolved Fluorescence. 0.4 nM recombinant human IL-17A protein was pre-incubated with a serial dilution of compounds disclosed herein (maximum concentration is 10 uM, 2.7-fold serially diluted, 10 points) at room temperature for 3 hours in an assay buffer containing 20 mM HEPES, pH 7.5, 50 mM NaCl, 0.1% BSA, 0.2 mM DTT, 0.005% Tween 20. Then 0.3 nM recombinant human IL-17RA was added to plate and further incubated at room temperature for 1 hour. After that Mab Anti-6His Tb cryptate Gold (Cat: 61HI2TLB, Cisbio Bioassays) and MAb Anti Human IgG-XL665 (Cat: 61HFCXLB, Cisbio Bioassays) were added to plate and further incubated at room temperature for 1 hour. The HTRF signals (ex337 nm, em620 nm/665 nm) were read on BMG PHERAstar FSX instrument. The inhibition percentage of human IL-17A interaction with its receptor human IL-17RA in presence of increasing concentrations of compounds was calculated based on the ratio of […]. The IC50 for each compound was derived from fitting the data to the four-parameter logistic equation by Dotmatics.

human IL-17A / human IL-17RA, sequence (Q16552 24-155): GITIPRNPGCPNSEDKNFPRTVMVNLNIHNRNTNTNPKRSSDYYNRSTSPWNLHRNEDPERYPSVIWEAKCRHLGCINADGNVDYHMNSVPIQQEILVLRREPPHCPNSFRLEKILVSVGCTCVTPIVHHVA

Row | Structure (SMILES) | pIC50
1 | CNC(=O)C1(N2C[C@@H](C(C)C)NC2=O)Cc2ccc(NC(=O)C(Cc3cc(Cl)ccc3Cl)NC(=O)c3ccnn3C)cc2C1 (stereo partly drawn) [Example 127, N-(3-(2,5-dichlorophenyl)-1-((2-((R)-4-isopropyl-2-oxoimidazolidin-1-yl)-2-(methylcarbamoyl)-2,3-dihydro-1H-inden-5-yl)amino)-1-oxopropan-2-yl)-1-methyl-1H-pyrazole-5-carboxamide] | 6.16
2 | CNC(=O)C1(N2CCCNC2=O)Cc2ccc(NC(=O)[C@@H](NC(=O)c3ccnn3C)C3CCCCC3)cc2C1 (stereo partly drawn) [Example 134, N-((1S)-1-cyclohexyl-2-((2-(methylcarbamoyl)-2-(2-oxotetrahydropyrimidin-1(2H)-yl)-2,3-dihydro-1H-inden-5-yl)amino)-2-oxoethyl)-1-methyl-1H-pyrazole-5-carboxamide] | 6.51
3 | CNC(=O)C1(N2C[C@@H](C(C)C)NC2=O)Cc2ccc(NC(=O)[C@@H](NC(=O)C3CC3)C3CCCCC3)cc2C1 (stereo partly drawn) [Example 49, 5-((S)-2-cyclohexyl-2-(cyclopropanecarboxamido)acetamido)-2-((R)-4-isopropyl-2-oxoimidazolidin-1-yl)-N-methyl-2,3-dihydro-1H-indene-2-carboxamide] | 5.74
4 | CNC(=O)C1(N2CC(C)NC2=O)CCc2ccc(NC(=O)[C@@H](NC(=O)c3ccnn3C)C3CCCCC3)cc2CC1 (stereo partly drawn) [Example 7, N-((1S)-1-cyclohexyl-2-((7-(4-methyl-2-oxoimidazolidin-1-yl)-7-(methylcarbamoyl)-6,7,8,9-tetrahydro-5H-benzo[7]annulen-2-yl)amino)-2-oxoethyl)-1-methyl-1H-pyrazole-5-carboxamide] | 4.29
5 | CNC(=O)C1(N2C[C@@H](CCc3ccccc3)NC2=O)Cc2ccc(NC(=O)[C@@H](NC(=O)c3ccnn3C)C3CCCCC3)cc2C1 (stereo partly drawn) [Example 96, N-((1S)-1-cyclohexyl-2-((2-(methylcarbamoyl)-2-((R)-2-oxo-4-phenethylimidazolidin-1-yl)-2,3-dihydro-1H-inden-5-yl)amino)-2-oxoethyl)-1-methyl-1H-pyrazole-5-carboxamide] | 5.64
6 | CNC(=O)C1(N2C[C@@H](C(C)C)NC2=O)Cc2ccc(NC(=O)[C@@H](Nc3nc4ccccc4o3)C3CCCCC3)cc2C1 (stereo partly drawn) [Example 77, 5-((S)-2-(benzo[d]oxazol-2-ylamino)-2-cyclohexylacetamido)-2-((R)-4-isopropyl-2-oxoimidazolidin-1-yl)-N-methyl-2,3-dihydro-1H-indene-2-carboxamide] | 6.31
7 | CCOC(=O)N[C@H](C(=O)Nc1ccc2c(c1)CC(C(=O)NC)(N1C[C@@H](C(C)C)NC1=O)C2)C1CCCCC1 (stereo partly drawn) [Example 50, ethyl ((1S)-1-cyclohexyl-2-((2-((R)-4-isopropyl-2-oxoimidazolidin-1-yl)-2-(methylcarbamoyl)-2,3-dihydro-1H-inden-5-yl)amino)-2-oxoethyl)carbamate] | 5.80
8 | CNC(=O)C1(N2CC(CC(F)(F)F)NC2=O)Cc2ccc(NC(=O)[C@@H](NC(=O)c3ccnn3C)C3CCCCC3)cc2C1 (stereo partly drawn) [Example 73, N-((1S)-1-cyclohexyl-2-((2-(methylcarbamoyl)-2-(2-oxo-4-(2,2,2-trifluoroethyl)imidazolidin-1-yl)-2,3-dihydro-1H-inden-5-yl)amino)-2-oxoethyl)-1-methyl-1H-pyrazole-5-carboxamide] | 6.41
9 | CNC(=O)C1(N2CC(C)NC2=O)Cc2ccc(NC(=O)[C@H](CC3CCCCC3)NC(=O)c3ccnn3C)cc2C1 (stereo partly drawn) [Example 16, N-((2S)-3-cyclohexyl-1-((2-(4-methyl-2-oxoimidazolidin-1-yl)-2-(methylcarbamoyl)-2,3-dihydro-1H-inden-5-yl)amino)-1-oxopropan-2-yl)-1-methyl-1H-pyrazole-5-carboxamide] | 5.30
10 | CNC(=O)C1(N2CC(c3ccccc3)NC2=O)Cc2ccc(NC(=O)[C@@H](NC(=O)c3ccnn3C)C3CCCCC3)cc2C1 (stereo partly drawn) [Example 36, N-((1S)-1-cyclohexyl-2-((2-(methylcarbamoyl)-2-(2-oxo-4-phenylimidazolidin-1-yl)-2,3-dihydro-1H-inden-5-yl)amino)-2-oxoethyl)-1-methyl-1H-pyrazole-5-carboxamide] | 5.61
11 | CNC(=O)C1(N2CC(C)(Cc3ccccc3)CNC2=O)Cc2ccc(NC(=O)[C@@H](NC(=O)c3ccnn3C)C3CCCCC3)cc2C1 (stereo partly drawn) [Example 109, N-((1S)-2-((2-(5-benzyl-5-methyl-2-oxotetrahydropyrimidin-1(2H)-yl)-2-(methylcarbamoyl)-2,3-dihydro-1H-inden-5-yl)amino)-1-cyclohexyl-2-oxoethyl)-1-methyl-1H-pyrazole-5-carboxamide] | 5.46
12 | CNC(=O)C1(N2C[C@@H](C(C)C)NC2=O)Cc2ccc(NC(=O)[C@H](NC(=O)c3ccnn3C)C(C3CC3)C3CC3)cc2C1 (stereo partly drawn) [Example 93, N-((2R)-1,1-dicyclopropyl-3-((2-((R)-4-isopropyl-2-oxoimidazolidin-1-yl)-2-(methylcarbamoyl)-2,3-dihydro-1H-inden-5-yl)amino)-3-oxopropan-2-yl)-1-methyl-1H-pyrazole-5-carboxamide] | 6.08
13 | CNC(=O)C1(N2C[C@@H](C(C)C)NC2=O)Cc2ccc(NC(=O)[C@@H](NC(=O)c3ccn(CCO)n3)C3CCCCC3)cc2C1 (stereo partly drawn) [Example 103, N-((1S)-1-cyclohexyl-2-((2-((R)-4-isopropyl-2-oxoimidazolidin-1-yl)-2-(methylcarbamoyl)-2,3-dihydro-1H-inden-5-yl)amino)-2-oxoethyl)-1-(2-hydroxyethyl)-1H-pyrazole-3-carboxamide] | 5.57
14 | CNC(=O)C1(N2CC3(CC3)CNC2=O)Cc2ccc(NC(=O)[C@@H](NC(=O)c3cnc4c(C#N)cccn34)C3CCCCC3)cc2C1 (stereo partly drawn) [Example 180, 8-cyano-N-((1S)-1-cyclohexyl-2-((2-(methylcarbamoyl)-2-(6-oxo-5,7-diazaspiro[2.5]octan-5-yl)-2,3-dihydro-1H-inden-5-yl)amino)-2-oxoethyl)imidazo[1,2-a]pyridine-3-carboxamide] | 5.43
15 | CC[C@H]1CN(C2(C(=O)NC)Cc3cc4nc([C@@H](NC(=O)c5nonc5C)C5CCCCC5)[nH]c4cc3C2)C(=O)N1 [Example 33, N-((1S)-cyclohexyl(6-((S)-4-ethyl-2-oxoimidazolidin-1-yl)-6-(methylcarbamoyl)-1,5,6,7-tetrahydroindeno[5,6-d]imidazol-2-yl)methyl)-4-methyl-1,2,5-oxadiazole-3-carboxamide] | 5.69
16 | CNC(=O)C1(N2C[C@@H](C(C)C)NC2=O)Cc2ccc(NC(=O)[C@@H](NC(=O)c3ccnn3C)C3CCOCC3)cc2C1 (stereo partly drawn) [Example 85, N-((1S)-2-((2-((R)-4-isopropyl-2-oxoimidazolidin-1-yl)-2-(methylcarbamoyl)-2,3-dihydro-1H-inden-5-yl)amino)-2-oxo-1-(tetrahydro-2H-pyran-4-yl)ethyl)-1-methyl-1H-pyrazole-5-carboxamide] | 5.00
17 | Cc1nonc1C(=O)N[C@H](C(=O)Nc1ccc2c(c1)CC(C(=O)Nc1ccc(Cl)cc1Cl)(N1C[C@@H](C(C)C)NC1=O)C2)C(C1CC1)C1CC1 (stereo partly drawn) [Example 264, N-((2S)-1,1-dicyclopropyl-3-((2-((2,4-dichlorophenyl)carbamoyl)-2-((R)-4-isopropyl-2-oxoimidazolidin-1-yl)-2,3-dihydro-1H-inden-5-yl)amino)-3-oxopropan-2-yl)-4-methyl-1,2,5-oxadiazole-3-carboxamide] | 5.60
18 | CNC(=O)C1(N2CC(C3CCc4ccccc43)NC2=O)Cc2ccc(NC(=O)[C@@H](NC(=O)c3ccnn3C)C3CCCCC3)cc2C1 (stereo partly drawn) [Example 92, N-((1S)-1-cyclohexyl-2-((2-(4-(2,3-dihydro-1H-inden-1-yl)-2-oxoimidazolidin-1-yl)-2-(methylcarbamoyl)-2,3-dihydro-1H-inden-5-yl)amino)-2-oxoethyl)-1-methyl-1H-pyrazole-5-carboxamide] | 5.52
19 | CNC(=O)C1(N2C[C@@H](C(C)C)NC2=O)Cc2ccc(NC(=O)[C@@H](NC(=O)CCc3ccccc3)C3CCCCC3)cc2C1 (stereo partly drawn) [Example 52, 5-((S)-2-cyclohexyl-2-(3-phenylpropanamido)acetamido)-2-((R)-4-isopropyl-2-oxoimidazolidin-1-yl)-N-methyl-2,3-dihydro-1H-indene-2-carboxamide] | 5.88
